Some test systems named below: EKVX NSCLC; OVCAR-5 ovarian; COLO 205 colon; IGROV1 ovarian; NCI/ADR-RES ovarian; HOP-62 NSCLC; UO-31 renal; HT29 colon; SK-MEL-28 melanoma; U251 CNS; CCRF-CEM leukemia; HCT-116 colon; HOP-92 NSCLC; DU-145 prostate; SF-539 CNS; ACHN renal; HCC-2998 colon; SF-268 CNS; SN12C renal; DLD-1 colon.
Holding throughout (experiment): NCI tumour cell line growth inhibition, 48 h

SMILES strings stand for the structures.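 The compound was tested at five concentrations on cells cultured in 96-well plates, with a 48-hour exposure period. The concentration for full growth arrest is given as TGI.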

Turning to `COc1ccc(CCNC(=O)CCc2ccccc2CO)cc1OC`, the TGI in the assay on EKVX NSCLC, with OVCAR-5 ovarian, in the assay with COLO 205 colon, in the assay with IGROV1 ovarian, with NCI/ADR-RES ovarian and with HOP-62 NSCLC was > 100 µM each time. For the same compound, the TGI in the assay on UO-31 renal, in the assay on HT29 colon, in the assay with SK-MEL-28 melanoma, in the assay with U251 CNS, in the assay with CCRF-CEM leukemia and in the assay with HCT-116 colon was > 100 µM throughout. The TGI in the assay on HOP-92 NSCLC, in the assay on DU-145 prostate, in the assay on SF-539 CNS, in the assay with ACHN renal, in the assay on HCC-2998 colon and with SF-268 CNS was > 100 µM throughout. The TGI in the assay on SN12C renal was > 100 µM.

As to `Cc1n[nH]c(=O)n1/N=C/c1ccncc1`, the TGI in the assay with EKVX NSCLC, with OVCAR-5 ovarian, in the assay with COLO 205 colon, in the assay with IGROV1 ovarian, in the assay with NCI/ADR-RES ovarian and with HOP-62 NSCLC was > 100 µM throughout. In addition, the TGI in the assay on UO-31 renal, in the assay with HT29 colon, in the assay on SK-MEL-28 melanoma, with U251 CNS, in the assay with CCRF-CEM leukemia and in the assay on HCT-116 colon was > 100 µM each time. The TGI in the assay on HOP-92 NSCLC, in the assay on DU-145 prostate, in the assay on SF-539 CNS, with ACHN renal, with HCC-2998 colon and in the assay on SF-268 CNS was > 100 µM throughout. For the same compound, the TGI with SN12C renal was > 100 µM.

For `O=C1CC(c2ccc(Cl)cc2)C2(C(=O)NC(=O)NC2=O)C(c2ccc(Cl)cc2)C1` (stereo unspecified), the TGI with EKVX NSCLC was > 75 µM; in the assay with OVCAR-5 ovarian it was > 75 µM; with COLO 205 colon, 65.1 µM; in the assay on IGROV1 ovarian, 51.3 µM; in the assay on NCI/ADR-RES ovarian it was > 75 µM; with HOP-62 NSCLC, 69 µM. For the same compound, the TGI in the assay with UO-31 renal was > 75 µM; in the assay with HT29 colon, > 75 µM; with SK-MEL-28 melanoma it was 37 µM; with U251 CNS, > 75 µM; in the assay on CCRF-CEM leukemia, > 75 µM; in the assay with HCT-116 colon it was > 75 µM. The TGI is 54.9 µM in the assay on HOP-92 NSCLC; > 75 µM in the assay with DU-145 prostate; > 75 µM in the assay on SF-539 CNS; > 75 µM with ACHN renal; > 75 µM in the assay on HCC-2998 colon; > 75 µM in the assay on SF-268 CNS. In addition, the TGI in the assay on SN12C renal was found to be 54 µM.

For `CCN(CC)c1ccc2cc(C(=O)Nc3nc(C45CC6CC(CC(C6)C4)C5)cs3)c(=O)oc2c1`, the TGI with EKVX NSCLC, in the assay with OVCAR-5 ovarian, in the assay on COLO 205 colon, in the assay with IGROV1 ovarian, in the assay with NCI/ADR-RES ovarian and with HOP-62 NSCLC was > 100 µM throughout. Also, the TGI with UO-31 renal, in the assay with HT29 colon, in the assay with SK-MEL-28 melanoma, with U251 CNS, in the assay on CCRF-CEM leukemia and with HCT-116 colon was > 100 µM throughout. Also, the TGI with HOP-92 NSCLC, with DU-145 prostate, in the assay on SF-539 CNS, in the assay on ACHN renal, in the assay with HCC-2998 colon and in the assay with SF-268 CNS was > 100 µM throughout. For the same compound, in the assay on SN12C renal, the TGI is > 100 µM.

With `C#C[C@]1(O)CC[C@H]2[C@@H]3CCC4=C/C(=N\OCCN(CC)CC)CC[C@]4(C)[C@H]3CC[C@@]21C`, the TGI with EKVX NSCLC came out at 26.6 µM; with OVCAR-5 ovarian it was 32.2 µM; with COLO 205 colon, 11.5 µM; in the assay with IGROV1 ovarian, 17.1 µM; in the assay on NCI/ADR-RES ovarian it was 8.5 µM; with HOP-62 NSCLC, 16 µM. Besides, the TGI in the assay with UO-31 renal was 15.8 µM; in the assay with HT29 colon, 14.6 µM; in the assay with SK-MEL-28 melanoma it was 25.8 µM; with U251 CNS, > 38.3 µM; in the assay with CCRF-CEM leukemia it was 44.9 µM; with HCT-116 colon, 17.6 µM. Further, the TGI with HOP-92 NSCLC worked out at 52.9 µM; with DU-145 prostate, 25.8 µM; in the assay on SF-539 CNS, 10.1 µM; in the assay on ACHN renal, 28.1 µM; in the assay with HCC-2998 colon, 25.9 µM; in the assay with SF-268 CNS, 10.8 µM. The TGI in the assay with SN12C renal is 46.8 µM.

With `COC(=O)c1ccccc1C1CN=NC12Cc1cc(C)c(C)cc1C2=O` (stereo unspecified), the TGI in the assay with EKVX NSCLC, in the assay with OVCAR-5 ovarian, in the assay with COLO 205 colon, in the assay with IGROV1 ovarian, in the assay on NCI/ADR-RES ovarian and with HOP-62 NSCLC was > 100 µM throughout. For the same compound, the TGI with UO-31 renal, with HT29 colon, in the assay with SK-MEL-28 melanoma, in the assay on U251 CNS, with CCRF-CEM leukemia and in the assay on HCT-116 colon was > 100 µM each time. For the same compound, the TGI with HOP-92 NSCLC is 78.9 µM; in the assay with DU-145 prostate, > 100 µM; with SF-539 CNS it was > 100 µM; with ACHN renal, > 100 µM; in the assay on HCC-2998 colon it was > 100 µM; in the assay with SF-268 CNS it was > 100 µM. The TGI in the assay with SN12C renal is > 100 µM.

`COC(=O)CCc1cccnc1/C=N/O`: the TGI in the assay on DLD-1 colon, in the assay on EKVX NSCLC, in the assay with OVCAR-5 ovarian, in the assay with COLO 205 colon, in the assay with IGROV1 ovarian and in the assay on HOP-62 NSCLC was > 100 µM each time. Moreover, the TGI with UO-31 renal, in the assay with HT29 colon, in the assay with SK-MEL-28 melanoma, in the assay with U251 CNS, in the assay on CCRF-CEM leukemia and in the assay on HCT-116 colon was > 100 µM in each case. Moreover, the TGI in the assay on HOP-92 NSCLC, with SF-539 CNS, with ACHN renal, with SF-268 CNS and with SN12C renal was > 100 µM throughout.

The record behind these values is PubChem BioAssay (NCI).
